Reference: patent US20100099564A1, “HERBICIDE COMBINATION COMPRISING DIMETHOXYTRIAZINYL-SUBSTITUTED DIFLUOROMETHANESULFONYLANILIDES” (BAYER CROPSCIENCE AG, priority 2008, published 2010)

How the values were obtained:
Type in all cases: in vivo
[1] = system: Cyperus esculentus (CYPES); test: Post-emergence action, greenhouse pot test, visual scoring: CYPES
Description: (§1) Seeds or rhizome pieces of mono- and dicotyledonous harmful and useful plants were placed in peat pots (diameter 4 cm) filled with sandy loam and then covered with soil. The pots were kept in a greenhouse under optimum conditions. In addition, harmful plants encountered in paddy rice cultivation were cultivated in pots with a water level 2 cm above the soil surface.
(§2) About three weeks after the start of the cultivation, the test plants were treated at the 2- to 3-leaf stage. The herbicides, formulated as powder or liquid concentrates, were, either alone or in the combinations according to the invention, sprayed in various dosages on to the green parts of the plants using an application rate of 600 l of water/ha (converted). For further cultivation of the plants, the pots were then again kept under optimum conditions in a greenhouse.
(§3) The visual scoring of the herbicidal effects was carried out in intervals up to 21 days after the treatment. Scoring was carried out in percent in comparison to the untreated control plants. 0%=no herbicidal activity, 100%=complete herbicidal activity=complete kill.
(§4) The percentages from the treatments with the herbicides alone (=individual application) and with the combinations according to the invention (=mixtures) were employed to calculate interactions using the method of Colby. When the observed efficacies of the mixtures exceed the formal sum of the values of the tests with individual applications, they also exceed the expected value according to Colby, which is calculated using the formula below (cf. S. R. Colby; in Weeds 15 (1967) pp. 20 to 22):
(§5) Here: • A, B=activity of components A and B in percent at a dosage of a and b g of ai/ha (=gramm of active substance per hectare), respectively. • E=expected value in % at a dosage of a+b g of ai/ha.

[2] = system: Echinochloa crusgaffi (ECHCG); test: Post-emergence action, greenhouse pot test, visual scoring: ECHCG; conditions: for % activity found: 21 DAT
Description: as §1, §2, §3, §4, §5
(§6) The combinations according to the invention of herbicides from group (A) with herbicides from group (B) were tested on a broad spectrum of important harmful plants (weed grasses, broad-leaved weeds/Cyperaceae) and useful plants: Triticum aestivum (TRZAS), Stellaria media (STEME), Lolium multiflorum (LOLMU), Veronica persica (VERPE), Alopecurus myosuroides (ALOMY), Matricaria inodora (MATIN), Brassica napus (BRSNW), Viola tricolor (VIOTR), Avena fatua (AVEFA), Amaranthus retroflexus (AMARE), Zea mays (ZEAMX), Pharbitis purpurea (PHBPU), Setaria viridis (SETVI), Fallopia (ex Polygonum) convolvulus (POLCO), Echinochloa crusgaffi (ECHCG), Abuthilon theophrasti (ABUTH), Cyperus esculentus (CYPES), Oryza sativa (ORYSA).
(§7) Of particular interest are the results shown in the tables (Tab.) below, where the following key is used: • (1) EPPO code (former Bayer code) for the treated plant (see above) • (2) Time of scoring: DAT (days after treatment) • (3) Component A tested (identifying number) • (4) Component B tested (identifying number) • (5) Dosage component A [g of ai/ha] • (6) Dosage component B [g of ai/ha] • (7) % activity found • (8) E value (calculated according to Colby; see above) • (9) Comments: “SYNERGY” =synergistic interaction (E value<% activity found); “SAFENING”=safener action on useful plant (E value>% activity found)

Setaria viridis (SETVI) = test: Post-emergence action, greenhouse pot test, visual scoring: SETVI; conditions: 21 DAT
Description: as §1, §2, §3, §4, §5, §6, §7

[3] = system: Triticum aestivum (TRZAS); test: Post-emergence action, greenhouse pot test, visual scoring: TRZAS
Description: as §1, §2, §3, §4, §5, §6, §7

[4] = system: Alopecurus myosuroides (ALOMY); test: Post-emergence action, greenhouse pot test, visual scoring: ALOMY; conditions: 21 DAT
Description: as §1, §2, §3, §4, §5

[5] = system: Lolium multiflorum (LOLMU); test: Post-emergence action, greenhouse pot test, visual scoring: LOLMU; conditions: for (7) % activity found: 21 DAT
Description: as §1, §2, §3, §4, §5, §6, §7

[6] = system: Abuthilon theophrasti (ABUTH); test: Post-emergence action, greenhouse pot test, visual scoring: ABUTH
Description: as §1, §2, §3, §4, §5, §6, §7

[7] = system: Fallopia (ex Polygonum) convolvulus (POLCO); test: Post-emergence action, greenhouse pot test, visual scoring: POLCO; conditions: 21 DAT
Description: as §1, §2, §3, §4, §5, §6, §7

Veronica persica (VERPE) = test: Post-emergence action, greenhouse pot test, visual scoring: VERPE
Description: as §1, §2, §3, §4, §5, §6, §7

Stellaria media (STEME) = test: Post-emergence action, greenhouse pot test, visual scoring: STEME; conditions: 10 DAT
Description: as §1, §2, §3, §4, §5, §6, §7

[8] = system: Pharbitis purpurea (PHBPU); test: Post-emergence action, greenhouse pot test, visual scoring: PHBPU
Description: as §1, §2, §3, §4, §5, §6, §7

Avena fatua (AVEFA) = test: Post-emergence action, greenhouse pot test, visual scoring: AVEFA; conditions: 21 DAT
Description: as §1, §2, §3, §4, §5, §6, §7

Oryza sativa (ORYSA) = test: Post-emergence action, greenhouse pot test, visual scoring: ORYSA
Description: as §1, §2, §3, §4, §5, §6, §7

Zea mays (ZEAMX) = test: Post-emergence action, greenhouse pot test, visual scoring: ZEAMX
Description: as §1, §2, §3, §4, §5, §6, §7

Viola tricolor (VIOTR) = test: Post-emergence action, greenhouse pot test, visual scoring: VIOTR; conditions: rate (5) 4
Description: as §1, §2, §3, §4, §5, §6, §7

[9] = system: Matricaria inodora (MATIN); test: Post-emergence action, greenhouse pot test, visual scoring: MATIN
Description: as §1, §2, §3, §4, §5

[10] = system: Amaranthus retroflexus (AMARE); test: Post-emergence action, greenhouse pot test, visual scoring: AMARE
Description: as §1, §2, §3, §4, §5

COc1nc(OC)nc(C(=O)c2cccc(F)c2N(C)S(=O)(=O)C(F)F)n1 [A-1]
30%: (7) % activity found (Veronica persica (VERPE); 21 DAT, rate (5) 4) | (7) % activity found (Avena fatua (AVEFA); rate (5) 12)
10%: (7) % activity found ([5]; rate (5) 12) | (7) % activity found (Avena fatua (AVEFA); rate (5) 4) | (7) % activity found (Oryza sativa (ORYSA); 10 DAT, rate (5) 4) | (7) % activity found (Oryza sativa (ORYSA); 10 DAT, rate (5) 12) | (7) % activity found (Oryza sativa (ORYSA); 21 DAT, rate (5) 12)
40%: (7) % activity found ([4]; rate (5) 4) | (7) % activity found (Veronica persica (VERPE); 21 DAT, rate (5) 12)
50%: (7) % activity found ([4]; rate (5) 12)
70%: (7) % activity found ([1]; 10 DAT, rate (5) 4) | (7) % activity found ([1]; 10 DAT, rate (5) 12) | (7) % activity found ([2]; 10 DAT, rate (5) 12) | (7) % activity found ([7]; rate (5) 12) | % activity found (Stellaria media (STEME); dose (5) 4) | % activity found (Stellaria media (STEME); dose (5) 12) | % activity found ([9]; 10 DAT, A 12 g of ai/ha)
65%: (7) % activity found ([8]; 21 DAT, rate (5) 12)
0%: (7) % activity found (Setaria viridis (SETVI); rate (5) 4) | (7) % activity found ([3]; 10 DAT, rate (5) 4) | (7) % activity found ([3]; 10 DAT, rate (5) 12) | (7) % activity found ([3]; 21 DAT, rate (5) 4) | (7) % activity found ([3]; 21 DAT, rate (5) 12) | (7) % activity found ([5]; rate (5) 4) | (7) % activity found (Oryza sativa (ORYSA); 21 DAT, rate (5) 4) | (7) % activity found (Zea mays (ZEAMX); 10 DAT, rate (5) 4) | (7) % activity found (Zea mays (ZEAMX); 10 DAT, rate (5) 12) | (7) % activity found (Zea mays (ZEAMX); 21 DAT, rate (5) 12) | (7) % activity found (Viola tricolor (VIOTR); 21 DAT)
20%: (7) % activity found (Setaria viridis (SETVI); rate (5) 12) | (7) % activity found (Viola tricolor (VIOTR); 10 DAT)
75%: (7) % activity found ([7]; rate (5) 4)
80%: (7) % activity found ([1]; 21 DAT, rate (5) 4) | (7) % activity found ([1]; 21 DAT, rate (5) 12)
60%: % activity found ([8]; 10 DAT, dose (5) 4) | % activity found ([8]; 21 DAT, dose (5) 4)
85%: % activity found ([2]; dose (5) 4) | % activity found ([6]; 21 DAT, dose (5) 4) | % activity found ([6]; 21 DAT, dose (5) 12)

CCSC(=O)N1CCCCCC1 [B6-7, S-ethyl hexahydro-1H-azepine-1-carbothioate]
0%: % activity found ([2]; dose (6) 300) | % activity found ([2]; dose (6) 900) | % activity found ([6]; 10 DAT, dose (6) 300) | % activity found ([6]; 10 DAT, dose (6) 900) | % activity found ([10]; 10 DAT, dose (6) 300) | % activity found ([10]; 10 DAT, dose (6) 900) | % activity found ([10]; 21 DAT, dose (6) 300) | % activity found ([10]; 21 DAT, dose (6) 900) | % activity found ([7]; dose (6) 300) | % activity found ([7]; dose (6) 900) | % activity found (Veronica persica (VERPE); 10 DAT, dose (6) 900) | % activity found (Veronica persica (VERPE); 21 DAT, dose (6) 300) | % activity found (Stellaria media (STEME); dose (6) 300) | % activity found (Stellaria media (STEME); dose (6) 900) | % activity found ([8]; 10 DAT, dose (6) 300) | % activity found ([8]; 10 DAT, dose (6) 900) | % activity found ([8]; 21 DAT, dose (6) 300) | % activity found ([8]; 21 DAT, dose (6) 900) | % activity found (Avena fatua (AVEFA); dose (6) 300)
30%: % activity found ([9]; 21 DAT, dose (6) 300) | % activity found ([9]; 21 DAT, dose (6) 900)
20%: % activity found ([5]; 10 DAT, dose (6) 900) | % activity found ([9]; 10 DAT, dose (6) 900)
